Results reported in patent US10674699B2, “Endophyte enhanced seedlings with increased pest tolerance” (priority 2006, dated 2020).

Legend:
[1] = system: Lambdina fiscellaria (hemlock looper) larvae; assay: Dietary rugulosin in artificial diet, hemlock looper larvae; assay type: in vivo; settings: 1 week
Protocol: The toxicity of an endophyte toxin on a pest such as hemlock looper is optionally tested according to the following method. The toxin to be tested is incorporated into an artificial diet suitable for pest growth. Artificial diet is prepared in individual cups, containing toxin concentrations of 5 micromolar, 10 micromolar, 25 micromolar, 50 micromolar and 100 micromolar. One 3rd instar insect is added to each of 75 cups per dilution and incubated in a growth chamber under appropriate conditions such as at 22 C, 55% relative humidity with 16 h light/day. After 4 days, the insects are frozen, weighed and their head capsules measured. A reduction in head capsule size (eg. width) or weight compared to a control sample is indicative of the presence of a toxin. One skilled in the art would understand that this method can be modified to test different concentrations of toxin and that the conditions can be modified to test a variety of different pests.
Lambdina fiscellaria eggs (hemlock looper) were purchased from Forestry Canada in three lots. The eggs were incubated at room temperature for 10 d until larvae emerged. Larvae from each batch emerged within two days of each other and were immediately put on diet in cups as above. […] After 1 week on the test diets, the larvae were frozen, weighed and head capsule width determined.

[2] = Rugulosin analysis of needles by HPLC (toxin in planta); design: species or system Picea glauca; settings: field trees analyzed in 2005, limit of detection 150 ng/g
Protocol: Rugulosin of purity>95% was used for standards. The presence of rugulosin was then to be determined in a sub-sample of 113 randomly-selected trees of the 330 trees determined to be endophyte positive by antibody. A 100 mg sample of freeze-dried needles was ground to a fine power as describe above and extracted with 10 mL of ice cold petroleum ether by stirring for 45 min under conditions of low light. The flask was kept on ice during the extracting and was covered with aluminium foil to prevent degradation by light. The suspension was filtered by suction and discarded. The needles were returned to the flask and extracted with 10 mL of chloroform for 45 min as above for petroleum ether. The new suspension was then filtered by suction and retained while the needles were discarded. The chloroform extract was washed with 10 mL of 5% NaHCO3 in a separatory funnel. […]
The dried extracts were re-dissolved in 50 μL of acetonitrile, 10 μL was removed and injected into an 1100 series Agilent Technologies HPLC-DAD, using a Synergi Max RP 80A, 250×4.6 column (Phenomonex) and a gradient method adapted from Frisvad (1987). […] Samples were analysed at 389 nm, the maximum UVNIS absorption for rugulosin and peak identity was confirmed by full spectrum data from the diode array detector. The limit of quantification was 150 ng/g freeze dried powdered material; recoveries from spiked needles averaged 75%. […]

[3] = system: fruit flies (Drosophila melanogaster); settings: Dobias et al. 1980; cited from earlier work
[4] = system: ovarian cells of the fall armyworm, Spodoptera frugiperda; settings: Watts et al. 2003; cited from earlier work
[5] = system: mosquito larvae (Aedes albopictus) cell line; settings: Watts et al. 2003; cited from earlier work
rats = settings: in rats; Ueno et al. 1971; cited from earlier work
[6] = system: Gram positive and negative bacteria; settings: reported by many authors, e.g. Stark et al. 1978; cited from earlier work
[7] = Breen et al. 1955; cited from earlier work
spruce budworm larvae = settings: Miller et al. 2002; cited from earlier work

## Cc1cc(O)c2c(c1)C(=O)[C@]13C(=C2O)C(=O)[C@@H]2[C@H](O)[C@H]1[C@@H]1[C@@H](O)[C@H]3C(=O)C3=C(O)c4c(O)cc(C)cc4C(=O)[C@]312 [rugulosin]
[1]
  dietary rugulosin concentration with significantly reduced head capsule: 150 µM
[2]
  individual branch samples positive for rugulosin or its degradation product: 89%
[3]
  dietary toxicity of rugulosin: ~50 µM
  toxicity to Drosophila melanogaster: toxic
[4]
  toxicity to cultured cells: toxic
[5]
  toxicity to cultured cells: toxic
rats
  LD50: 44 mg kg^−1 BW
[6]
  antibiotic activity: antibiotic
[7]
  antifungal activity: moderately antifungal
Spruce budworm larvae
  toxicity to C. fumiferana larvae in needles: toxic
